Structures can show the parent of a compound that is named as a salt. Where two headings read alike, the source gives them in different places.
Columns and labels:
in vivo = details: mouse, topical or ocular
Description: The donor consisted of a 20% solution of these compounds in 1 mL of isopropanol applied to a 10 cm^2 on the backs of the hairless mice. Plasma levels of drugs were determined by a specific high-performance liquid chromatography method.

mice [1] = assay: Acute toxicity, LD50 orally in mice; type: in vivo; details: oral, mice
Text: (§1) The acute toxicity of the prodrugs was investigated. […].

mice [2] = assay: Analgesic activity: acetic acid writhing test in mice; type: in vivo; details: for No. of Writhings: 50 mg/kg transdermally 60 minutes before acetic acid solution intraperitoneally, control group 35.0; for Rate of Inhibition (%): 50 mg/kg transdermally 60 minutes before acetic acid solution, based on the control group
Description: The number of writhings that occurred when mice were administered an acetic acid solution intraperitoneally were counted, and the rate of inhibition based on the control group was calculated. […] The group A is the control group.

Rats = assay: Antipyretic activity: rats given sterilized E. coli suspension as pyrogen; type: in vivo; details: 25 mg/kg transdermally 2 hours after E. coli pyrogen, in °C (unit assumed)
Description: Antipyretic activity: Rats received a sterilized E. coli suspension as a pyrogen. […] The body temperature of the rats was taken at 90 min. intervals before and after the administration of the test compounds.

[3] = Acute toxicity, LD50 orally in mice; type: in vivo; details: mouse, in vivo
Text: as §1

Solubility in water = details: for solubility: water, solubility in water
[4] = prodrug versus the drug itself (testosterone); cited from earlier work
[5] = oral, mice, read-out: LD50 orally in mice

Molecule: CN1C(C(=O)Nc2nccs2)=C(O)c2ccccc2S1(=O)=O [sudoxiam, reference compound]
- peak plasma levels (in vivo): ~0.005 mg/mL

Molecule: 4- N,N-dimethylaminobutyryloxy - 2-methyl-N-[5-Methyl-3-isoxolyl-2H-1,2-benzothiazine-3-carboxamide 1,1-dioxide] .HCl [G]
- peak plasma levels (in vivo): ~0.5 mg/mL
- time until peak plasma levels were reached after application of the donor systems (in vivo): ~50 min
- LD50 orally in mice (mice [1]): 570 mg/kg
- No. of Writhings (mice [2]): 15.8
- Rate of Inhibition (%) (mice [2]): 55%
- body temperature of the rats, t = 0 min. (Rats): 37.52±0.06
- body temperature of the rats, t = 90 min. (Rats): 36.62±0.07
- body temperature of the rats, t = 180 min. (Rats): 36.53±0.06
- body temperature of the rats, t = 270 min. (Rats): 36.60±0.05

Molecule: CN(C)CCCC(=O)OC(Nc1ccccn1)=C1C(=O)c2sc(Cl)cc2S(=O)(=O)N1C
- Cmax (in vivo): ~500 µg/mL
- Tmax (in vivo): ~50 min
- LD50 ([3]; po): 610 mg/kg
- solubility (Solubility in water): > 300 mg/mL

Molecule: CN(C)CCCC(=O)OC1=C(C(=O)Nc2ccccn2)N(C)S(=O)(=O)c2ccccc21 [B, 4-N,N-dimethylaminobutyryloxy-2-methyl-N-2-pyridinyl-2H,1,2-benzothiazine-3-carb oxamide 1,1-dioxide.HCl]
- solubility in water (Solubility in water): 250 mg/mL
- No. of Writhings (mice [2]): 15.6
- Rate of Inhibition (%) (mice [2]): 55%
- body temperature of the rats, t = 0 min. (Rats): 37.57±0.06
- body temperature of the rats, t = 90 min. (Rats): 36.51±0.05
- body temperature of the rats, t = 180 min. (Rats): 36.40±0.06
- body temperature of the rats, t = 270 min. (Rats): 36.45±0.07

Molecule: CN(C)CCCC(=O)OC1=C(C(=O)Nc2ccccn2)N(C)S(=O)(=O)c2cc(Cl)sc21
- Cmax (in vivo): ~500 µg/mL
- Tmax (in vivo): ~50 min
- LD50 ([3]; po): 580 mg/kg
- solubility (Solubility in water): > 300 mg/mL

Molecule: CN(C)CCCC(=O)OC1=C(C(=O)Nc2ccccn2)N(C)S(=O)(=O)c2ccsc21
- Cmax (in vivo): ~500 µg/mL
- Tmax (in vivo): ~50 min
- LD50 ([3]; po): 500 mg/kg
- solubility (Solubility in water): > 300 mg/mL

Molecule: CN(C)CCCC(=O)OC1=C(C(=O)Nc2nccs2)N(C)S(=O)(=O)c2ccccc21 [C, N-(2-thiazoyl)-4-N,N-dimethylaminobutyryloxy-2-methyl-2H,1,2-benzothiazine-3-carbo xamide 1,1-dioxide.HCl]
- Cmax (in vivo): ~500 µg/mL
- solubility in water (Solubility in water; listed as N-(2-thiazolyl)-4-N,N-dimethylaminobutyryloxy-2-methyl-2H,1,2-benzothiazine-3-ca): 250 mg/mL
- solubility (Solubility in water): > 300 mg/mL
- No. of Writhings (mice [2]): 15.7
- Rate of Inhibition (%) (mice [2]): 55%
- body temperature of the rats, t = 0 min. (Rats): 37.50±0.07
- body temperature of the rats, t = 90 min. (Rats): 36.61±0.04
- body temperature of the rats, t = 180 min. (Rats): 36.50±0.07
- body temperature of the rats, t = 270 min. (Rats): 36.60±0.05

Molecule: CN(C)CCCC(=O)OC1=C(C(=O)Nc2ccccn2)N(C)S(=O)(=O)c2cc(Cl)sc21 [Compound D, 6-chloro-4-N,N-dimethylaminobutyryloxy-2-methyl-N-2-pyridinyl-2H-thieno[2,3-e]-1 ,2-thiazine-3-carboxamide 1,1-dioxide.HCl]
- solubility in water (Solubility in water): 250 mg/mL
- No. of Writhings (mice [2]): 16.5
- Rate of Inhibition (%) (mice [2]): 53%
- body temperature of the rats, t = 0 min. (Rats): 37.55±0.05
- body temperature of the rats, t = 90 min. (Rats): 36.66±0.06
- body temperature of the rats, t = 180 min. (Rats): 36.60±0.06
- body temperature of the rats, t = 270 min. (Rats): 36.61±0.07

Molecule: CN(C)CCCC(=O)OC(Nc1ccccn1)=C1C(=O)c2sc(Cl)cc2S(=O)(=O)N1C.Cl [F, 8-chloro-(4-N,N-dimethylaminobutyryloxy-pyridine-2-ylamino-methylidene)-3-methy 1-2,2-dioxo-2λ^6'7-dithia-3-azabicyclo[4,3,0]nona-8,10-dien-5-one.HCl]
- No. of Writhings (mice [2]): 17.5
- Rate of Inhibition (%) (mice [2]): 50%
- body temperature of the rats, t = 0 min. (Rats): 37.53±0.05
- body temperature of the rats, t = 90 min. (Rats): 36.57±0.05
- body temperature of the rats, t = 180 min. (Rats): 36.52±0.07
- body temperature of the rats, t = 270 min. (Rats): 36.51±0.06

Molecule: CN(C)CCCC(=O)OC1=C(C(=O)Nc2ccccn2)N(C)S(=O)(=O)c2ccsc21 [E, 4-N,N-dimethylaminobutyryloxy-2-methyl-N-2-pyridinyl-2H-thieno[2,3-e]-1,2-thiazine-3-carboxamide 1,1-dioxide.HCl]
- solubility in water (Solubility in water): 250 mg/mL
- No. of Writhings (mice [2]): 16.9
- Rate of Inhibition (%) (mice [2]): 53%
- body temperature of the rats, t = 0 min. (Rats): 37.54±0.06
- body temperature of the rats, t = 90 min. (Rats): 36.61±0.06
- body temperature of the rats, t = 180 min. (Rats): 36.58±0.08
- body temperature of the rats, t = 270 min. (Rats): 36.55±0.05

Molecule: Cc1cnc(NC(=O)C2=C(OC(=O)CCCN(C)C)c3ccccc3S(=O)(=O)N2C)s1 [H, 4-N,N-dimethylaminobutyryloxy-2-methyl-N-(5-methyl-2-thiazolyl)-2H-1,2-benzothiazine-3-carboxamide-1,1-dioxide.HCl]
- Cmax (in vivo): ~500 µg/mL
- LD50 [3, 5]: 590 mg/kg
- No. of Writhings (mice [2]): 18.2
- Rate of Inhibition (%) (mice [2]): 48%
- body temperature of the rats, t = 0 min. (Rats): 37.57±0.07
- body temperature of the rats, t = 90 min. (Rats): 36.53±0.08
- body temperature of the rats, t = 180 min. (Rats): 36.52±0.08
- body temperature of the rats, t = 270 min. (Rats): 36.50±0.07

Molecule: CN(C)CCCC(=O)OC1=C(C(=O)Nc2ccccn2)N(C)S(=O)(=O)c2ccccc21
- Cmax (in vivo): ~500 µg/mL
- Tmax (in vivo): ~50 min
- LD50 ([3]; po): 550 mg/kg
- solubility (Solubility in water): > 300 mg/mL

Molecule: Cc1cnc(NC(=O)C2=C(OC(=O)CCCN(C)C)c3ccccc3S(=O)(=O)N2C)s1.Cl
- time until peak plasma levels were reached after application of the donor systems (in vivo): ~50 min

Molecule: CN(C)CCCC(=O)OC1=C(C(=O)Nc2nccs2)N(C)S(=O)(=O)c2ccccc21
- Tmax (in vivo): ~50 min
- LD50 ([3]; po): 670 mg/kg

Molecule: CN(C)CCCC(=O)O[C@H]1CC[C@H]2[C@@H]3CCC4=CC(=O)CC[C@]4(C)[C@H]3CC[C@]12C.Cl [TSBH, testosteronyl-4-dimethylaminobutyrate.HCl]
- diffuses through human skin faster than does the drug itself [4]: ~ 60 times

Molecule: CN1C(C(=O)Nc2ccccn2)=C(O)c2ccccc2S1(=O)=O [Piroxicam, reference compound]
- Cmax (in vivo): ~5 µg/mL
- LD50 [3, 5]: 360 mg/kg
